In patent US20250289793A1, “MACROCYCLIC INHIBITORS OF ATP CITRATE LYASE” (Esperion Therapeutics, Inc., priority 2022, published 2025):

What was measured:
ACLY [1] = target: T1, ACLY (Homo sapiens (Human), UniProt P53396); assay: Human ACLY (hACLY) RF/MS activity assay; format: biochemical; conditions: 1 nM hACLY; 30 min pre-incubation; 15 μM Coenzyme A, 50 μM ATP, 50 μM citrate; CoA to Acetyl-CoA by RF/MS; read-out: RFMS IC50 GMean
Description: Compounds of the disclosure were evaluated for their efficacy in inhibiting hACLY using rapid fire mass spectrometry (RF/MS).
The final reaction volume for each compound was 20 μl and consisted of buffer (50 mM Hepes pH 8.0, 10 mM MgCl2, 0.003% BSA, 0.01% Brij35, 50 mM NaCl, 4 mM DTT) and 1 nM hACLY, EV12992, PP6692) using Greiner, 384 well small volume, deep well plates (Cat #784201). A two-fold dilution series with a top concentration of 10 μM was used to record a concentration response curve. Both the substrate (CoA) and product (Acetyl-CoA) were quantified, and given a ratio. […] The final DMSO-concentration was 1% (v/v). Compounds were pre-incubated for 30 min with the buffered enzyme solution at RT (20° C.), and substrate solution was added (final concentrations: 15 μM Coenzyme A, 50 μM ATP and 50 μM citrate) to initiate the enzyme reaction. The enzyme reaction was incubated for additional 30 min at RT. The reaction was quenched upon addition of 40 μl of 5% Formic acid in H2O and centrifuged (4350 rpm at 20° C. for 10 min).
Product formation was quantified using a RF/MS-based method based on mass change of CoA (substrate) to Acetyl-CoA (product).

ACLY [2] = target: T1, ACLY; assay: InCell Pulse assay (permeate HEK293 cells, bind to and stabilize ACLY); format: cell-based; conditions: HEK293 cells transfected with pICP-ACLY(FL)-ePL; 1 hour at 37° C., 55° C. heat pulse 10 minutes; read-out: InCell Pulse IC50 GMean
Description: HEK293 cells transfected for 24 hours with pICP-ACLY(FL)-ePL (3 μg DNA per T25 flask) using FuGene HD (Promega Corp.) were harvested and cryopreserved. On the day of the assay, the frozen transfected cells were thawed at 37° C., and the storage medium (DMEM with 2 mM L-Glutamine, 10% FBS and a final concentration of DMSO 10%) was exchanged with assay medium (OptiMEM; Gibco™, ThermoFischer Scientific). Compounds were 3-fold serially diluted in DMSO over 11-point concentration range. 100 nL of the corresponding dilutions were spotted into the assay plate (Greiner AG; 384 Well, PP, Small Volume, Deep Well, Natural, cat. no. 784201) followed by the addition of 20 μL of cell suspension adjusted with assay medium to 7.5E4 cells/mL. Subsequently, the plates were sealed and incubated for 1 hour at 37° C. Afterwards, the plates were fixed upside down in a rack and incubated in a 55° C. water bath for 10 minutes. Following this heat pulse step, plates were allowed to reach room temperature for 10 minutes and centrifuged for a few seconds at 1000 rpm and room temperature. 25 μL EA detection solution (working solution: 0.0167× InCell EA Reagent, 0.15× InCell Dilution Buffer, 0.167× InCell Lysis Buffer; 0.667× InCell Substrate Reagent; InCell Hunter Detection kit; Eurofins DiscoverX; cat. no. 96-0079) were added to each well. Afterwards, 42 μL were transferred from the assay plate to the detection plate (Corning Inc., 384-well Low Flange Black Flat Bottom Polystyrene NBS Microplate, cat. no. 3575), followed by an incubation for 1 hour at room temperature, a centrifugation step for 1 minute at 1000 rpm and the detection of the luminescence signal using an EnVision microplate reader (Perkin Elmer Inc.). Concentration-response curve-fitting and IC50 determination was performed using Evotec's in-house evaluation software APlus with a four-parameter non-linear regression fit model. Data was normalized to 0.5% (final concentration) DMSO as low/negative control and 1 μM (final concentration) NDI-094311 as high/positive control.

T1 sequence (P53396 whole entry): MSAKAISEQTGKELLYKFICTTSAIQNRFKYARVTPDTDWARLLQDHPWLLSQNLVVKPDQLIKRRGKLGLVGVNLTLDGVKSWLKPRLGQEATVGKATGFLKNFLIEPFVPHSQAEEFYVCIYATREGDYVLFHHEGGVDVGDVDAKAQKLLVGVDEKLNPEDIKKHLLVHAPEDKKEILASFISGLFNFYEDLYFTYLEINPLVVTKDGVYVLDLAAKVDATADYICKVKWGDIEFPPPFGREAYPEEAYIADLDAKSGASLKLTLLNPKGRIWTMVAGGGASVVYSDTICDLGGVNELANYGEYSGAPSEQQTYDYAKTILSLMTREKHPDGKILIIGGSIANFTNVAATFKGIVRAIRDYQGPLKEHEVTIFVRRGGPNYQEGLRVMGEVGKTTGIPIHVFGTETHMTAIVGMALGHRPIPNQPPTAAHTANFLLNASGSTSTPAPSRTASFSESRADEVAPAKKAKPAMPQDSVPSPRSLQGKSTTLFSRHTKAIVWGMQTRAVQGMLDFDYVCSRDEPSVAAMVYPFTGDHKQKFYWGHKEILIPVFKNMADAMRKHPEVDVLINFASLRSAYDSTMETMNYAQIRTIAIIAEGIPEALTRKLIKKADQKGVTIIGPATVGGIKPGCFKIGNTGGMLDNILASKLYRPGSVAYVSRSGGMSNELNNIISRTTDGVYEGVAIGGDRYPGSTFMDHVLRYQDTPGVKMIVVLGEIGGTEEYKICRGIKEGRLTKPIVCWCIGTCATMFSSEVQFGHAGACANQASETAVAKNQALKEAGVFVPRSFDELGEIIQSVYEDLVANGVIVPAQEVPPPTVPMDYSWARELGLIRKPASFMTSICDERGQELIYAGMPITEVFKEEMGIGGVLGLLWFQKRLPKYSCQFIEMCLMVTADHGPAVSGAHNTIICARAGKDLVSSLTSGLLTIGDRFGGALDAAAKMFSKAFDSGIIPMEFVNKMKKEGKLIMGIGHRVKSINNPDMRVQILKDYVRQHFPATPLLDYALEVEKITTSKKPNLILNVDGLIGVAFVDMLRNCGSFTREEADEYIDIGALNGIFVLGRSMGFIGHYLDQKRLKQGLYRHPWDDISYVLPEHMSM

IC50 (ACLY [1]) [nM]	IC50 (ACLY [2]) [nM]	SMILES
< 20	< 300	O=C1OCC2Cc3cccc(c3O2)-c2cc(c(F)cc2F)NS(=O)(=O)c2cc1cc(Cl)c2O (stereo not drawn) [Compound 39, 15-chloro-21,23-difluoro-16-hydroxy-18,18-dioxo-8,11-dioxa-18λ6-thia-19-azapentacyclo[18.3.1.16,9.113,17.02,7]hexacosa-1(23),2(7),3,5,13,15,17(25),20(24),21-nonaen-12-one]
20 to 100	< 300	O=C1OCCCc2ccccc2-c2ccc(F)c(c2)NS(=O)(=O)c2cc1cc(Cl)c2O [Compound 42, 15-chloro-21-fluoro-16-hydroxy-18,18-dioxo-11-oxa-18λ6-thia-19-azatetracyclo[18.3.1.113,17.02,7]pentacosa-1(23),2(7),3,5,13,15,17(25),20(24),21-nonaen-12-one]
20 to 100	300 to 1000	O=C1OCCOc2ccc(Cl)cc2-c2ccc(F)c(c2)NS(=O)(=O)c2cc1cc(Cl)c2O [Compound 52, 4,15-dichloro-21-fluoro-16-hydroxy-18,18-dioxo-8,11-dioxa-18λ6-thia-19-azatetracyclo[18.3.1.113,17.02,7]pentacosa-1(23),2(7),3,5,13,15,17(25),20(24),21-nonaen-12-one]
100 to 10000	≥ 50000	O=C1OCCOc2cc3cn[nH]c3cc2-c2cc(c(F)cc2F)NS(=O)(=O)c2cc1cc(Cl)c2O [Compound 53, 18-chloro-24,26-difluoro-19-hydroxy-21,21-dioxo-11,14-dioxa-21λ6-thia-5,6,22-triazapentacyclo[21.3.1.116,20.02,10.04,8]octacosa-1(27),2(10),3,6,8,16(28),17,19,23,25-decaen-15-one]
≥ 10000	≥ 50000	O=C1NCCOc2ccccc2-c2cc(c(F)cc2F)CS(=O)(=O)c2cc1cc(Cl)c2O [Compound 14, 15-chloro-21,23-difluoro-16-hydroxy-8-oxa-18lambda6-thia-11-azatetracyclo[18.3.1.1^13,17.0^2,7]pentacosa-1(24),2,4,6,13,15,17(25),20,22-nonaene-12,18,18-trione]
20 to 100	1000 to 50000	O=C1OCC2CN(C2)c2ccccc2-c2cc(c(F)cc2F)NS(=O)(=O)c2cc1cc(Cl)c2O [Compound 76, 16-chloro-22,24-difluoro-17-hydroxy-19,19-dioxo-12-oxa-19λ6-thia-8,20-diazapentacyclo[19.3.1.18,10.114,18.02,7]heptacosa-1(25),2,4,6,14,16,18(26),21,23-nonaen-13-one]
20 to 100	≥ 50000	O=C1OCc2cccnc2-c2cc(c(F)cc2F)NS(=O)(=O)c2cc1cc(Cl)c2O [Compound 87, 13-chloro-19,21-difluoro-14-hydroxy-16,16-dioxo-9-oxa-16λ6-thia-3,17-diazatetracyclo[16.3.1.111,15.02,7]tricosa-1(21),2(7),3,5,11,13,15(23),18(22),19-nonaen-10-one]
< 20	< 300	O=C1OCc2ccc(F)cc2-c2cc(c(F)cc2F)NS(=O)(=O)c2cc1cc(Cl)c2O [Compound 81, 13-chloro-4,19,21-trifluoro-14-hydroxy-16,16-dioxo-9-oxa-16λ6-thia-17-azatetracyclo[16.3.1.111,15.02,7]tricosa-1(21),2,4,6,11(23),12,14,18(22),19-nonaen-10-one]
100 to 10000	300 to 1000	N#Cc1ccc2c(c1)-c1cc(c(F)cc1F)NS(=O)(=O)c1cc(cc(Cl)c1O)C(=O)OC2 [Compound 86, 13-chloro-19,21-difluoro-14-hydroxy-10,16,16-trioxo-9-oxa-16λ6-thia-17-azatetracyclo[16.3.1.111,15.02,7]tricosa-1(21),2,4,6,11(23),12,14,18(22),19-nonaene-4-carbonitrile]
≥ 10000	≥ 50000	O=C1OCCOc2ccccc2-c2cc(c(F)cc2F)NS(=O)(=O)c2cc(O)cc1c2 [Compound 65, 21,23-difluoro-15-hydroxy-18,18-dioxo-8,11-dioxa-18λ6-thia-19-azatetracyclo[18.3.1.113,17.02,7]pentacosa-1(24),2,4,6,13,15,17(25),20,22-nonaen-12-one]
100 to 10000	≥ 50000	O=C1c2cc(Cl)c(O)c(c2)S(=O)(=O)Nc2cc(c(F)cc2F)-c2cccc3c2CN1C3 [Compound 89, 13-chloro-19,21-difluoro-14-hydroxy-16,16-dioxo-16λ6-thia-9,17-diazapentacyclo[16.3.1.16,9.111,15.02,7]tetracosa-1(21),2(7),3,5,11,13,15(23),18(22),19-nonaen-10-one]
100 to 10000	1000 to 50000	O=C1OCCOc2ccc(C3CC3)cc2-c2cc(c(F)cc2F)NS(=O)(=O)c2cc1cc(Cl)c2O [Compound 31, 15-chloro-4-cyclopropyl-21,23-difluoro-16-hydroxy-8,11-dioxa-18lambda6-thia-19-azatetracyclo[18.3.1.1^13,17.0^2,7]pentacosa-1(23),2,4,6,13(25),14,16,20(24),21-nonaene-12,18,18-trione]
< 20	< 300	O=C1OCCOc2ccccc2-c2ccc(F)c(c2)NS(=O)(=O)c2cc1cc(Cl)c2O [Compound 23, 15-chloro-21-fluoro-16-hydroxy-8,11-dioxa-18lambda6-thia-19-azatetracyclo[18.3.1.1^13,17.0^2,7]pentacosa-1(24),2,4,6,13,15,17(25),20,22-nonaene-12,18,18-trione]
20 to 100	< 300	O=C1OCCc2ccc(F)cc2-c2ccc(F)c(c2)NS(=O)(=O)c2cc1cc(Cl)c2O [Compound 74, 14-chloro-4,20-difluoro-15-hydroxy-17,17-dioxo-10-oxa-17λ6-thia-18-azatetracyclo[17.3.1.112,16.02,7]tetracosa-1(22),2(7),3,5,12(24),13,15,19(23),20-nonaen-11-one]
20 to 100	300 to 1000	N#Cc1ccc2c(c1)-c1cc(c(F)cc1F)NS(=O)(=O)c1cc(cc(Cl)c1O)C(=O)OCCO2 [Compound 28, 15-chloro-21,23-difluoro-16-hydroxy-12,18,18-trioxo-8,11-dioxa-18lambda6-thia-19-azatetracyclo[18.3.1.1^13,17.0^2,7]pentacosa-1(24),2,4,6,13,15,17(25),20,22-nonaene-4-carbonitrile]
20 to 100	< 300	O=C1OCCc2cc(F)ccc2-c2ccc(F)c(c2)NS(=O)(=O)c2cc1cc(Cl)c2O [Compound 73, 14-chloro-5,20-difluoro-15-hydroxy-17,17-dioxo-10-oxa-17λ6-thia-18-azatetracyclo[17.3.1.112,16.02,7]tetracosa-1(22),2(7),3,5,12,14,16(24),19(23),20-nonaen-11-one]
20 to 100	< 300	CC1CCOC(=O)c2cc(Cl)c(O)c(c2)S(=O)(=O)Nc2cc(c(F)cc2F)-c2ccccc21 (single isomer, unassigned) [Compound 45, 15-chloro-21,23-difluoro-16-hydroxy-8-methyl-18,18-dioxo-11-oxa-18λ6-thia-19-azatetracyclo[18.3.1.113,17.02,7]pentacosa-1(23),2(7),3,5,13,15,17(25),20(24),21-nonaen-12-one]
20 to 100	≥ 50000	O=C1OCC[C@H]2CCCN2c2ccc(F)c(c2)NS(=O)(=O)c2cc1cc(Cl)c2O [Compound 70, (6R)-13-chloro-19-fluoro-14-hydroxy-16,16-dioxo-9-oxa-16%6-thia-2,17-diazatetracyclo[16.3.1.111,15.02,6]tricosa-1(21),11(23),12,14,18(22),19-hexaen-10-one]
